In ChEMBL document CHEMBL3797052 (Eur J Med Chem, 2016):

What was measured:
NCI-H460 = test: Antiproliferative activity against human NCI-H460 cells assessed as cell growth at 10^-4 M after 48 hrs by sulforhodamine B assay; assay type: functional; details: NCI-H460, 48 h, read-out: Activity
M14 = test: Antiproliferative activity against human M14 cells assessed as cell growth at 10^-7 M after 48 hrs by sulforhodamine B assay; assay type: functional; details: M14, 48 h, read-out: Activity
[1] = Antiproliferative activity against human HOP62 cells assessed as cell growth at 10^-8 M after 48 hrs by sulforhodamine B assay; assay type: functional; details: HOP-62, 48 h, read-out: Activity
[2] = Antiproliferative activity against human SNB19 cells assessed as growth inhibition after 48 hrs by sulforhodamine B assay; assay type: functional; details: SNB-19, 48 h
Malme-3M [3] = test: Antiproliferative activity against human MALME-3M cells assessed as cell growth at 10^-8 M after 48 hrs by sulforhodamine B assay; assay type: functional; details: read-out: Activity
A498 [4] = test: Antiproliferative activity against human A498 cells assessed as cell growth at 10^-6 M after 48 hrs by sulforhodamine B assay; assay type: functional; details: A498, 48 h, read-out: Activity
[5] = Antiproliferative activity against human SF268 cells assessed as cell growth at 10^-8 M after 48 hrs by sulforhodamine B assay; assay type: functional; details: SF-268, 48 h, read-out: Activity
[6] = Antiproliferative activity against human UO31 cells assessed as cell growth at 10^-8 M after 48 hrs by sulforhodamine B assay; assay type: functional; details: UO-31, 48 h, read-out: Activity
NCI-H322M = test: Antiproliferative activity against human NCI-H322M cells assessed as cell growth at 10^-4 M after 48 hrs by sulforhodamine B assay; assay type: functional; details: read-out: Activity
[7] = Antiproliferative activity against human OVCAR5 cells assessed as cell growth at 10^-8 M after 48 hrs by sulforhodamine B assay; assay type: functional; details: OVCAR-5, 48 h, read-out: Activity
[8] = Antiproliferative activity against human LOXIMVI cells assessed as cell growth at 10^-6 M after 48 hrs by sulforhodamine B assay; assay type: functional; details: LOX IMVI, read-out: Activity
[9] = target: RAF proto-oncogene serine/threonine-protein kinase (Homo sapiens, UniProt P04049); test: Inhibition of human CRAF at 10 uM measured after 40 mins by scintillation counting
A498 [10] = test: Antiproliferative activity against human A498 cells assessed as cell growth at 10^-8 M after 48 hrs by sulforhodamine B assay; assay type: functional; details: A498, 48 h, read-out: Activity
[11] = Antiproliferative activity against human OVCAR5 cells assessed as cell growth at 10^-6 M after 48 hrs by sulforhodamine B assay; assay type: functional; details: OVCAR-5, 48 h, read-out: Activity
Malme-3M [12] = test: Antiproliferative activity against human MALME-3M cells assessed as growth inhibition after 48 hrs by sulforhodamine B assay; assay type: functional
[13] = Antiproliferative activity against human NCI-ADR-RES cells assessed as cell growth at 10^-4 M after 48 hrs by sulforhodamine B assay; assay type: functional; details: read-out: Activity
NCI-H226 [14] = test: Antiproliferative activity against human NCI-H226 cells assessed as cell growth at 10^-7 M after 48 hrs by sulforhodamine B assay; assay type: functional; details: NCI-H226, 48 h, read-out: Activity
[15] = Antiproliferative activity against human SKOV3 cells assessed as cell growth at 10^-4 M after 48 hrs by sulforhodamine B assay; assay type: functional; details: SK-OV-3, 48 h, read-out: Activity
[16] = Antiproliferative activity against human SNB19 cells assessed as cell growth at 10^-6 M after 48 hrs by sulforhodamine B assay; assay type: functional; details: SNB-19, 48 h, read-out: Activity
MDA-MB-468 [17] = test: Antiproliferative activity against human MDA-MB-468 cells assessed as cell growth at […] after 48 hrs by sulforhodamine B assay; assay type: functional; details: MDA-MB-468, 48 h, read-out: Activity
SK-MEL-28 = test: Antiproliferative activity against human SK-MEL-28 cells assessed as cell growth at 10^-6 M after 48 hrs by sulforhodamine B assay; assay type: functional; details: SK-MEL-28, 48 h, read-out: Activity
[18] = Antiproliferative activity against human UACC62 cells assessed as cell growth at 10^-8 M after 48 hrs by sulforhodamine B assay; assay type: functional; details: UACC-62, 48 h, read-out: Activity
NCI-H226 [19] = test: Antiproliferative activity against human NCI-H226 cells assessed as cell growth at 10^-4 M after 48 hrs by sulforhodamine B assay; assay type: functional; details: NCI-H226, 48 h, read-out: Activity
[20] = Antiproliferative activity against human PC3 cells assessed as cell growth at 10^-4 M after 48 hrs by sulforhodamine B assay; assay type: functional; details: PC-3, 48 h, read-out: Activity
MDA-MB-231 = test: Antiproliferative activity against human MDA-MB-231 cells assessed as growth inhibition after 48 hrs by sulforhodamine B assay; assay type: functional; details: MDA-MB-231, 48 h; for CC50: read-out: LC50 (the source's name)
MDA-MB-468 [21] = test: Antiproliferative activity against human MDA-MB-468 cells assessed as cell growth at 10^-6 M after 48 hrs by sulforhodamine B assay; assay type: functional; details: MDA-MB-468, 48 h, read-out: Activity
[22] = Antiproliferative activity against human OVCAR4 cells assessed as cell growth at 10^-4 M after 48 hrs by sulforhodamine B assay; assay type: functional; details: OVCAR-4, 48 h, read-out: Activity
[23] = Antiproliferative activity against human SNB19 cells assessed as cell growth at 10^-8 M after 48 hrs by sulforhodamine B assay; assay type: functional; details: SNB-19, 48 h, read-out: Activity
ACHN = test: Antiproliferative activity against human ACHN cells assessed as cell growth at 10^-7 M after 48 hrs by sulforhodamine B assay; assay type: functional; details: read-out: Activity
A549 [24] = test: Antiproliferative activity against human A549/ATCC cells assessed as cell growth at […] after 48 hrs by sulforhodamine B assay; assay type: functional; details: A549, 48 h, read-out: Activity
[25] = tested on: Serine/threonine-protein kinase B-raf (Homo sapiens), P15056 [V600E]; test: Inhibition of BRAF V600E mutant (unknown origin) at 10 uM measured after 40 mins by scintillation counting
KM12 = test: Antiproliferative activity against human KM12 cells assessed as cell growth at 10^-7 M after 48 hrs by sulforhodamine B assay; assay type: functional; details: KM12, 48 h, read-out: Activity
[26] = Antiproliferative activity against human Hs 578T cells assessed as growth inhibition after 48 hrs by sulforhodamine B assay; assay type: functional; details: for CC50: read-out: LC50 (the source's name)
NCI-H23 = test: Antiproliferative activity against human NCI-H23 cells assessed as cell growth at 10^-7 M after 48 hrs by sulforhodamine B assay; assay type: functional; details: NCI-H23, 48 h, read-out: Activity
[27] = Antiproliferative activity against human SW620 cells assessed as cell growth at 10^-7 M after 48 hrs by sulforhodamine B assay; assay type: functional; details: SW-620, 48 h, read-out: Activity
A549 [28] = test: Antiproliferative activity against human A549/ATCC cells assessed as cell growth at 10^-8 M after 48 hrs by sulforhodamine B assay; assay type: functional; details: A549, 48 h, read-out: Activity
[29] = Antiproliferative activity against human RXF393 cells assessed as cell growth at 10^-8 M after 48 hrs by sulforhodamine B assay; assay type: functional; details: RXF 393, 48 h, read-out: Activity

Chain of RAF proto-oncogene serine/threonine-protein kinase (P04049 whole entry): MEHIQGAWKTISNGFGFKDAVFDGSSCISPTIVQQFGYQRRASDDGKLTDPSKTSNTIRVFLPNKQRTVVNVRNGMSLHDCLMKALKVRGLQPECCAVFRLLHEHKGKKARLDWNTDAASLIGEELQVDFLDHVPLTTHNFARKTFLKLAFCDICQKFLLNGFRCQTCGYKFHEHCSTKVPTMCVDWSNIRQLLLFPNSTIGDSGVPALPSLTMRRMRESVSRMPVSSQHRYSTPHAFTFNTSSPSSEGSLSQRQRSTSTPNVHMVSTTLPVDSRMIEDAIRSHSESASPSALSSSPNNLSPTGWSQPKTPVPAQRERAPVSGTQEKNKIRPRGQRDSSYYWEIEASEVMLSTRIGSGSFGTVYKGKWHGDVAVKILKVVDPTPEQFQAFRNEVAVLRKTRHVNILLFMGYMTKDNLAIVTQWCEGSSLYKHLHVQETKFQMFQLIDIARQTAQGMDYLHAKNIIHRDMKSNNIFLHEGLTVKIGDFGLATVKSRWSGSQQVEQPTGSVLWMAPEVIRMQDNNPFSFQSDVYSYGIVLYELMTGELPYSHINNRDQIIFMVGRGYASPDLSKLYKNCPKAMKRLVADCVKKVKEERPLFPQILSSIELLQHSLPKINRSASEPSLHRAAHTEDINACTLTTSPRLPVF
Chain of Serine/threonine-protein kinase B-raf (Homo sapiens), P15056 [V600E] (P15056 whole entry V600E): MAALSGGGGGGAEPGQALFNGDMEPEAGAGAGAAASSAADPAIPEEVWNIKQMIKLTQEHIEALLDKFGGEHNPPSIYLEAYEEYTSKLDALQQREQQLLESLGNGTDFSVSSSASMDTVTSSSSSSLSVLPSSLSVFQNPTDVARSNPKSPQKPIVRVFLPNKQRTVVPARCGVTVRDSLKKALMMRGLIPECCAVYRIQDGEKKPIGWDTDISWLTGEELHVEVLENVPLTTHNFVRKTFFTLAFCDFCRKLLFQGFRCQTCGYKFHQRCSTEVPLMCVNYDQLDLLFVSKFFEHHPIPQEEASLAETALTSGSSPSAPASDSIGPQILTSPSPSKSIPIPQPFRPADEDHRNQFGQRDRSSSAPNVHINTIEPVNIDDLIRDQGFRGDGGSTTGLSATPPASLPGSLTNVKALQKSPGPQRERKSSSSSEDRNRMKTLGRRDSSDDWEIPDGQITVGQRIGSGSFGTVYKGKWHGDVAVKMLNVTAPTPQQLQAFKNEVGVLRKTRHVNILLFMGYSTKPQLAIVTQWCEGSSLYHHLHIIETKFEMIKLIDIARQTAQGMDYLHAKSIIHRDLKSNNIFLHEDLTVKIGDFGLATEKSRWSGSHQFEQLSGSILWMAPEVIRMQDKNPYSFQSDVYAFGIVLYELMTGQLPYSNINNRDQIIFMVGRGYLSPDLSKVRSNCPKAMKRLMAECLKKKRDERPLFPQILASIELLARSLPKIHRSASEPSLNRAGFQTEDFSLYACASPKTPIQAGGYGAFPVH

CNC(=O)c1cc(Oc2ccc3nc(NC(=O)Nc4ccc(Cl)c(C(F)(F)F)c4)sc3c2)ccn1
growth at 100 µM (NCI-H460): 10%
growth at 0.1 µM (M14): 92%
growth at 0.01 µM [1]: 92%
GI50 [2]: 2.77 µM
LC50 (50% lethal concentration) [2]: > 100 µM
TGI [2]: 10.2 µM
growth at 0.01 µM (Malme-3M [3]): 104%
growth at 1 µM (A498 [4]): 80%
growth at 0.01 µM [5]: 107%
growth at 0.01 µM [6]: 100%
growth at 100 µM (NCI-H322M): 27%
growth at 0.01 µM [7]: 90%
growth at 1 µM [8]: 87%
inhibition [9]: 94.8%
growth at 0.01 µM (A498 [10]): 95%
growth at 1 µM [11]: 90%
GI50 (Malme-3M [12]): 1.61 µM
TGI (Malme-3M [12]): 3.63 µM
growth at 100 µM [13]: 11%
growth at 0.1 µM (NCI-H226 [14]): 99%
growth at 100 µM [15]: -68%
growth at 1 µM [16]: 85%
growth at 0.01 µM (MDA-MB-468 [17]): 86%
growth at 1 µM (SK-MEL-28): 78%
growth at 0.01 µM [18]: 95%
growth at 100 µM (NCI-H226 [19]): -25%
growth at 100 µM [20]: 7%
GI50 (MDA-MB-231): 1.43 µM
TGI (MDA-MB-231): 4.29 µM
CC50 (MDA-MB-231): 59.2 µM
growth at 1 µM (MDA-MB-468 [21]): 64%
growth at 100 µM [22]: -15%
growth at 0.01 µM [23]: 101%
growth at 0.1 µM (ACHN): 102%
growth at 0.1 µM (A549 [24]): 105%
inhibition [25]: 55.1%
growth at 0.1 µM (KM12): 102%
GI50 [26]: 1.53 µM
TGI [26]: 6.27 µM
CC50 [26]: > 100 µM
growth at 0.1 µM (NCI-H23): 97%
growth at 0.1 µM [27]: 101%
growth at 0.01 µM (A549 [28]): 104%
growth at 0.01 µM [29]: 87%

CNC(=O)c1cc(Oc2ccc(NC(=O)Nc3ccc(Cl)c(C(F)(F)F)c3)cc2)ccn1 [SORAFENIB]
GI50 [2]: 3.16 µM
TGI [2]: 15.8 µM
GI50 (Malme-3M [12]): 2 µM
TGI (Malme-3M [12]): 6.31 µM
CC50 (Malme-3M [12]; read-out: LC50 (the source's name)): 63.1 µM
GI50 (MDA-MB-231): 1.26 µM
TGI (MDA-MB-231): 3.98 µM
CC50 (MDA-MB-231): 20 µM
TGI [26]: 7.94 µM
CC50 [26]: 100 µM
